Assay results as given in patent US12139492B2 (Endotarget Inc., priority 2021, dated 2024).

How the values were obtained:
Assay type in all cases: cell-based
Mino cells = assay: Antiproliferative effect, MTS cell viability assay, Mino cells; conditions: Homo sapiens, MINO, Mino mantle cell lymphoma cells; read-out: IC50 (anti-proliferation) Mino cells
In short: (§1)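 MTS read-out, A490 of formazan from metabolically active cells; compound 0–10 μM (0, 0.001, 0.01, 0.1, 1, 10 μM), 72 h exposure.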

BTK = BTK (Homo sapiens, UniProt Q06187); assay: BTK degradation, DC50 and Dmax of Table 1 (cell line not given); set-up: endogenous in cells; conditions: for DC50: concentration giving 50% reduction of BTK expression level
JeKo-1 cells = assay: Antiproliferative effect, MTS cell viability assay, JeKo-1 cells; conditions: Homo sapiens; JeKo-1 mantle cell lymphoma cells; read-out: IC50 (anti-proliferation) JeKO-1 cells
In short: as §1

BTK, sequence (Q06187 whole entry): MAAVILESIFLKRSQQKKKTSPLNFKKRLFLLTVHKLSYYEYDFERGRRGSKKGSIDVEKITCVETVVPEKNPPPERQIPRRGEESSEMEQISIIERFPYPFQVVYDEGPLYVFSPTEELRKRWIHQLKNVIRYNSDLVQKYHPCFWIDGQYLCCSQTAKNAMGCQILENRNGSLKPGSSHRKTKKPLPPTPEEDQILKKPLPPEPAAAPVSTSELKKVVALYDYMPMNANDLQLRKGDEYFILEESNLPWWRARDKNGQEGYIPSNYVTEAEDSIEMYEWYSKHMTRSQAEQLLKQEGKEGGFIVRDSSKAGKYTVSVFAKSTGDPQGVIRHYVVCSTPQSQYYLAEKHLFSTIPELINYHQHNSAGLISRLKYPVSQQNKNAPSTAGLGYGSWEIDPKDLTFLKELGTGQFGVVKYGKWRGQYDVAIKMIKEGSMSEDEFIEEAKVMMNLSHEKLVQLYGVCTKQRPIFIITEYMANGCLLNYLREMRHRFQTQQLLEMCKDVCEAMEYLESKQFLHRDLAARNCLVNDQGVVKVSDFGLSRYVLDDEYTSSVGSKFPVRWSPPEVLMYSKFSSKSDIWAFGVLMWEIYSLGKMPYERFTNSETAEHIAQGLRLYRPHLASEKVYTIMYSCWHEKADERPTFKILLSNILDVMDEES

Row | Dmax (BTK) [%] | DC50 (BTK) [nM] | SMILES | IC50 (Mino cells) [nM] | IC50 (JeKo-1 cells) [nM]
1 | > 75 | 10 to 50 | Nc1ncnc2c1c(-c1ccc(Oc3ccccc3)cc1)nn2[C@@H]1CCCN(C2CCN(CCN3CCC(c4ccc5c(c4)CN(C4CCC(=O)NC4=O)C5=O)CC3)CC2)C1 (stereo partly drawn) [Compound 150, 3-(5-(1-(2-((R)-3-(4-amino-3-(4-phenoxyphenyl)-1H-pyrazolo[3,4-d]pyrimidin-1-yl)-[1,4′-bipiperidin]-1′-yl)ethyl)piperidin-4-yl)-1-oxoisoindolin-2-yl)piperidine-2,6-dione] | > 10000 | 1000 to 10000
2 | > 75 | > 50 | Nc1ncnc2c1c(-c1ccc(Oc3ccccc3)cc1)nn2[C@@H]1CCCN(C2CCN(CCCN3CCN(c4ccc5c(c4)C(=O)N(C4CCC(=O)NC4=O)C5=O)CC3)CC2)C1 (stereo partly drawn) [Compound 151, 5-(4-(3-((R)-3-(4-amino-3-(4-phenoxyphenyl)-1H-pyrazolo[3,4-d]pyrimidin-1-yl)-[1,4′-bipiperidin]-1′-yl)propyl)piperazin-1-yl)-2-(2,6-dioxopiperidin-3-yl)isoindoline-1,3-dione] | > 10000 | > 10000
3 | > 75 | > 50 | Nc1ncnc2c1c(-c1ccc(Oc3ccccc3)cc1)nn2[C@@H]1CCCN(C2CCN(CCCN3CCN(c4ccc5c(c4)CN(C4CCC(=O)NC4=O)C5=O)CC3)CC2)C1 (stereo partly drawn) [Compound 152, 3-(5-(4-(3-((R)-3-(4-amino-3-(4-phenoxyphenyl)-1H-pyrazolo[3,4-d]pyrimidin-1-yl)-[1,4′-bipiperidin]-1′-yl)propyl)piperazin-1-yl)-1-oxoisoindolin-2-yl)piperidine-2,6-dione] | > 10000 | > 10000
4 | > 75 | > 50 | Nc1ncnc2c1c(-c1ccc(Oc3ccccc3)cc1)nn2[C@@H]1CCCN(C2CCN(CCCN3CCC(c4ccc5c(c4)C(=O)N(C4CCC(=O)NC4=O)C5=O)CC3)CC2)C1 (stereo partly drawn) [Compound 153, 5-(1-(3-((R)-3-(4-amino-3-(4-phenoxyphenyl)-1H-pyrazolo[3,4-d]pyrimidin-1-yl)-[1,4′-bipiperidin]-1′-yl)propyl)piperidin-4-yl)-2-(2,6-dioxopiperidin-3-yl)isoindoline-1,3-dione] | > 10000 | > 10000
5 | > 75 | > 50 | Nc1ncnc2c1c(-c1ccc(Oc3ccccc3)cc1)nn2[C@@H]1CCCN(C2CCN(CCCN3CCC(c4ccc5c(c4)CN(C4CCC(=O)NC4=O)C5=O)CC3)CC2)C1 (stereo partly drawn) [Compound 154, 3-(5-(1-(3-((R)-3-(4-amino-3-(4-phenoxyphenyl)-1H-pyrazolo[3,4-d]pyrimidin-1-yl)-[1,4′-bipiperidin]-1′-yl)propyl)piperidin-4-yl)-1-oxoisoindolin-2-yl)piperidine-2,6-dione] | > 10000 | > 10000
6 | > 50 | > 50 | Nc1ncnc2c1c(-c1ccc(Oc3ccccc3)cc1)nn2[C@@H]1CCCN(C2CCN(CCCC3CCN(c4ccc5c(c4)C(=O)N(C4CCC(=O)NC4=O)C5=O)CC3)CC2)C1 (stereo partly drawn) [Compound 155, 5-(4-(3-((R)-3-(4-amino-3-(4-phenoxyphenyl)-1H-pyrazolo[3,4-d]pyrimidin-1-yl)-[1,4′-bipiperidin]-1′-yl)propyl)piperidin-1-yl)-2-(2,6-dioxopiperidin-3-yl)isoindoline-1,3-dione] | > 10000 | > 10000
7 | > 50 | > 50 | Nc1ncnc2c1c(-c1ccc(Oc3ccccc3)cc1)nn2[C@@H]1CCCN(C2CCN(CCCC3CCN(c4ccc5c(c4)CN(C4CCC(=O)NC4=O)C5=O)CC3)CC2)C1 (stereo partly drawn) [Compound 156, 3-(5-(4-(3-((R)-3-(4-amino-3-(4-phenoxyphenyl)-1H-pyrazolo[3,4-d]pyrimidin-1-yl)-[1,4′-bipiperidin]-1′-yl)propyl)piperidin-1-yl)-1-oxoisoindolin-2-yl)piperidine-2,6-dione] | > 10000 | > 10000
8 | > 50 | > 50 | Nc1ncnc2c1c(-c1ccc(Oc3ccccc3)cc1)nn2[C@@H]1CCCN(C2CCN(C(=O)N3CCC(c4ccc5c(c4)C(=O)N(C4CCC(=O)NC4=O)C5=O)CC3)CC2)C1 (stereo partly drawn) [Compound 157, 5-(1-((R)-3-(4-amino-3-(4-phenoxyphenyl)-1H-pyrazolo[3,4-d]pyrimidin-1-yl)-[1,4′-bipiperidine]-1′-carbonyl)piperidin-4-yl)-2-(2,6-dioxopiperidin-3-yl)isoindoline-1,3-dione] | > 10000 | > 10000
9 | > 50 | > 50 | Nc1ncnc2c1c(-c1ccc(Oc3ccccc3)cc1)nn2[C@@H]1CCCN(C2CCN(C(=O)N3CCC(c4ccc5c(c4)CN(C4CCC(=O)NC4=O)C5=O)CC3)CC2)C1 (stereo partly drawn) [Compound 158, 3-(5-(1-((R)-3-(4-amino-3-(4-phenoxyphenyl)-1H-pyrazolo[3,4-d]pyrimidin-1-yl)-[1,4′-bipiperidine]-1′-carbonyl)piperidin-4-yl)-1-oxoisoindolin-2-yl)piperidine-2,6-dione] | > 10000 | > 10000
10 | > 50 | > 50 | Nc1ncnc2c1c(-c1ccc(Oc3ccccc3)cc1)nn2[C@@H]1CCCN(C2CCN(C(=O)N3CCN(c4ccc5c(c4)CN(C4CCC(=O)NC4=O)C5=O)CC3)CC2)C1 (stereo partly drawn) [Compound 160, 3-(5-(4-((R)-3-(4-amino-3-(4-phenoxyphenyl)-1H-pyrazolo[3,4-d]pyrimidin-1-yl)-[1,4′-bipiperidine]-1′-carbonyl)piperazin-1-yl)-1-oxoisoindolin-2-yl)piperidine-2,6-dione] | 1000 to 10000 | > 10000
11 | > 75 | 10 to 50 | Nc1ncnc2c1c(-c1ccc(Oc3ccccc3)cc1)nn2[C@@H]1CCCN(C2CCN(C(=O)N3CCC(C4CCN(c5ccc6c(c5)CN(C5CCC(=O)NC5=O)C6=O)CC4)CC3)CC2)C1 (stereo partly drawn) [Compound 164, 3-(5-(1′-((R)-3-(4-amino-3-(4-phenoxyphenyl)-1H-pyrazolo[3,4-d]pyrimidin-1-yl)-[1,4′-bipiperidine]-1′-carbonyl)-[4,4′-bipiperidin]-1-yl)-1-oxoisoindolin-2-yl)piperidine-2,6-dione] | 1000 to 10000 | > 10000
12 | > 75 | 10 to 50 | Nc1ncnc2c1c(-c1ccc(Oc3ccccc3)cc1)nn2[C@@H]1CCCN(C2CCN(C(=O)N3CCC(N4CCC(c5ccc6c(c5)C(=O)N(C5CCC(=O)NC5=O)C6=O)CC4)CC3)CC2)C1 (stereo partly drawn) [Compound 165, 5-(1′-((R)-3-(4-amino-3-(4-phenoxyphenyl)-1H-pyrazolo[3,4-d]pyrimidin-1-yl)-[1,4′-bipiperidine]-1′-carbonyl)-[1,4′-bipiperidin]-4-yl)-2-(2,6-dioxopiperidin-3-yl)isoindoline-1,3-dione] | 1000 to 10000 | > 10000
13 | > 90 | 10 to 50 | Nc1ncnc2c1c(-c1ccc(Oc3ccccc3)cc1)nn2[C@@H]1CCCN(C2CCN(C(=O)N3CCC(N4CCC(c5ccc6c(c5)CN(C5CCC(=O)NC5=O)C6=O)CC4)CC3)CC2)C1 (stereo partly drawn) [Compound 166, 3-(5-(1′-((R)-3-(4-amino-3-(4-phenoxyphenyl)-1H-pyrazolo[3,4-d]pyrimidin-1-yl)-[1,4′-bipiperidine]-1′-carbonyl)-[1,4′-bipiperidin]-4-yl)-1-oxoisoindolin-2-yl)piperidine-2,6-dione] | 1000 to 10000 | > 10000
14 | > 90 | 10 to 50 | Nc1ncnc2c1c(-c1ccc(Oc3ccccc3)cc1)nn2[C@@H]1CCCN(C2CCN(C(=O)N3CCC(CC4CCN(c5ccc6c(c5)C(=O)N(C5CCC(=O)NC5=O)C6=O)CC4)CC3)CC2)C1 (stereo partly drawn) [Compound 167, 5-(4-((1-((R)-3-(4-amino-3-(4-phenoxyphenyl)-1H-pyrazolo[3,4-d]pyrimidin-1-yl)-[1,4′-bipiperidine]-1′-carbonyl)piperidin-4-yl)methyl)piperidin-1-yl)-2-(2,6-dioxopiperidin-3-yl)isoindoline-1,3-dione] | 1000 to 10000 | 1000 to 10000
15 | > 90 | 10 to 50 | Nc1ncnc2c1c(-c1ccc(Oc3ccccc3)cc1)nn2[C@@H]1CCCN(C2CCN(C(=O)N3CCC(CC4CCN(c5ccc6c(c5)CN(C5CCC(=O)NC5=O)C6=O)CC4)CC3)CC2)C1 (stereo partly drawn) [Compound 168, 3-(5-(4-((1-((R)-3-(4-amino-3-(4-phenoxyphenyl)-1H-pyrazolo[3,4-d]pyrimidin-1-yl)-[1,4′-bipiperidine]-1′-carbonyl)piperidin-4-yl)methyl)piperidin-1-yl)-1-oxoisoindolin-2-yl)piperidine-2,6-dione] | < 1000 | 1000 to 10000
16 | > 90 | 10 to 50 | Nc1ncnc2c1c(-c1ccc(Oc3ccccc3)cc1)nn2[C@@H]1CCCN(C2CCN(C(=O)N3CCC(CN4CCN(c5ccc6c(c5)CN(C5CCC(=O)NC5=O)C6=O)CC4)CC3)CC2)C1 (stereo partly drawn) [Compound 170, 3-(5-(4-((1-((R)-3-(4-amino-3-(4-phenoxyphenyl)-1H-pyrazolo(3,4-d)pyrimidin-1-yl)-(1,4′-bipiperidine)-1′-carbonyl)piperidin-4-yl)methyl)piperazin-1-yl)-1-oxoisoindolin-2-yl)piperidine-2,6-dione] | 1000 to 10000 | 1000 to 10000
17 | > 90 | 10 to 50 | Nc1ncnc2c1c(-c1ccc(Oc3ccccc3)cc1)nn2[C@@H]1CCCN(C2CCN(C(=O)N3CCN(CC4CCN(c5ccc6c(c5)C(=O)N(C5CCC(=O)NC5=O)C6=O)CC4)CC3)CC2)C1 (stereo partly drawn) [Compound 171, 5-(4-((4-((R)-3-(4-amino-3-(4-phenoxyphenyl)-1H-pyrazolo[3,4-d]pyrimidin-1-yl)-[1,4′-bipiperidine]-1′-carbonyl)piperazin-1-yl)methyl)piperidin-1-yl)-2-(2,6-dioxopiperidin-3-yl)isoindoline-1,3-dione] | 1000 to 10000 | 1000 to 10000
